Columns and labels:
[1] = test system: MPTP-lesioned marmoset model of Parkinson's disease; assay: L-DOPA-induced mobility and dyskinesia in MPTP-lesioned marmosets; assay type: in vivo, Marmosets (Callithrix jacchus); conditions: L-DOPA (8 mg/kg) + imetit 1, 3, 10 mg/kg oral; assessed every 30 minutes for 4 hours
Procedure: The effect of the H3-histamine receptor agonist imetit on L-DOPA-induced dyskinesia was assessed in the MPTP-lesioned marmoset model of Parkinson's disease.
Marmosets (Callithrix jacchus) (bred in a closed colony at the University of Manchester) are rendered parkinsonian by subcutaneous injection of 2 mg kg^−1 MPTP for 5 consecutive days. The marmosets are allowed to recover for a minimum of 10 weeks until their parkinsonism becomes stable. The degree of activity and disability before and after MPTP treatment is assessed using a combination of scales as described in section 2.1.2. Animals are then treated with L-DOPA for at least 3 weeks to prime them to elicit dyskinesia. […]
The behavioural tests were assessed every 30 minutes for 4 hours, by post hoc analysis of video-recordings by an observer blinded to the treatment. […]

[2] = test system: reserpine-treated rat model of Parkinson's disease; assay: Locomotion (hyperkinesia) after chloro-APB in reserpine-treated parkinsonian rats; assay type: in vivo; conditions: reserpine (3 mg/kg) rats, chloro-APB (0.2 mg/kg) + imetit (1 mg/kg) versus vehicle, one hour period
Procedure: The effect of the H3-histamine receptor agonist imetit on dyskinesia was assessed in a reserpine-treated rat model of Parkinson's disease following treatment of the rats with the anti-parkinsonian agent chloro-APB (0.2 mg/kg).
Male Sprague-Dawley rats were split into two groups A and B. Rats in both groups were rendered parkinsonian by subcutaneous administration of reserpine (3 mg/kg) for 18 hours.
After the 18 hours Group A were treated with chloro-APB (0.2 mg/kg) and imetit (1 mg/kg) whereas B were treated with chloro-APB (0.2 mg/kg) and vehicle for imetit only.
The locomotion of the rats in Groups A and B was measured over a one hour period using Benwick locomotor monitors. These locomotion monitors consist of a visually-shielded open-field arena, the perimeter of which is surrounded by a series of infra-red beams arranged at 5 cm intervals. PC-based software (Amlogger) assesses the number of beams broken. The number of beams broken as part of a locomotor movement (mobile counts) or the number of beam breaks while the animal is not locomoting (static counts) were measured. In addition, the system assesses the time for which animals are mobile or static.

Structure (SMILES): N=C(N)SCCc1cnc[nH]1 [imetit]
- L-DOPA-induced mobility (mobility score) [1]: no effect on L-DOPA-induced mobility
- severity of L-DOPA-induced dyskinesia (dyskinesia score) [1]: dose-dependent reduction
- total mobile counts [2]: less than those treated with vehicle
